As a reminder, the IC50 is the concentration at which inhibition is half-maximal. A low value points to higher potency.

The target in this data set is T1, Cytochrome P450 11B1, mitochondrial (Homo sapiens, UniProt P15538).
T1 sequence (P15538 whole entry): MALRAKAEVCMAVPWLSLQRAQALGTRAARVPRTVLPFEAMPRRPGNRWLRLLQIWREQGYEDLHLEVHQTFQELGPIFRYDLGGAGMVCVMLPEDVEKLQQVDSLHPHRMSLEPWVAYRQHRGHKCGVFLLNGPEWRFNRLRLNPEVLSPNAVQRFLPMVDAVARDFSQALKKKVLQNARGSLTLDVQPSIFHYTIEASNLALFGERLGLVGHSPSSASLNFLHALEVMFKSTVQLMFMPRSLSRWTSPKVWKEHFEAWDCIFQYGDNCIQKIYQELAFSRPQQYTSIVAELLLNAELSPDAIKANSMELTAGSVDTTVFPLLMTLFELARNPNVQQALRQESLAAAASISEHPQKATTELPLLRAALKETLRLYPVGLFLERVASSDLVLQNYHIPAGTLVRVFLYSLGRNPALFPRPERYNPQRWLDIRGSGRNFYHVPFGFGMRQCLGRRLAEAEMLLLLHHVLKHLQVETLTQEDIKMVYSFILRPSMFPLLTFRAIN
In words: Inhibition of human CYP11B1 expressed in V79 MZh cells using [14C]-deoxycorticosterone substrate incubated for 6 hrs by HPTLC method.

`Cc1nnc2n1-c1c(F)cc(-c3cncc(F)c3)cc1CC2` registered an IC50 of 29.5 µM.

The values are drawn from BindingDB's records for doi:10.1021/acs.jmedchem.5b00079 (Saarland University and Helmholtz Institute For …, 2015).
